The record followed here is a melting point compilation (Tetko et al.; mined from patent text by program, amines drawn as free bases though some values may be those of a salt).

`CCC(=O)COc1ccc(CC2SC(=O)NC2=O)cc1` (configuration not stated) returned a melting point of 142 to 146 °C.
`Cc1c(O)cccc1C(=O)N[C@@H](Cc1ccccc1)[C@H](O)C(=O)N1CSC(C)(C)[C@H]1C(=O)N[C@@H]1CCc2ccccc21`: the melting point lay within 128 to 130 °C.
As for `N=C(CC=O)c1ccccc1`, the figure is 80 to 82 °C.
As for `COc1ccc(S(=O)(=O)N(c2ccc(Cl)cc2Cc2c(F)cccc2F)C(C)CO)cc1OC` (configuration not stated), the figure is 169 °C.
Under `N#Cc1ccc(OC[C@H](O)CO)cc1` stands 63 to 65 °C; under `Nc1cc(Br)cnc1CCCCNC1=NS(=O)N=C1NCc1ccncc1` (configuration not stated), 63 to 66 °C.
`CC(C)c1cccc(C(C)C)c1N1C(=O)c2cccc3c(Cl)ccc(c23)C1=O` came in with a melting point of 289 °C.
`CN1CC(CCN2CCN(c3ccc(Br)cc3)CC2)OC1=O` (configuration not stated): the melting point is 125 to 127 °C.
Under `CC(C)(C)COc1c(-c2ccc(S(C)(=O)=O)cc2)cnn(CC(F)(F)F)c1=O` stands 145 to 146 °C; under `CCNC[C@H]1CCc2cc(F)cc(-c3c(Cl)cccc3Cl)c2O1`, more than 225 °C; under `Cc1cc(OCc2ccc(-c3ccc(F)c(C(F)(F)F)c3)nc2C)ccc1OC(C)(C)C(=O)O`, 141 to 143 °C.
In the case of `O=S1(=O)CCN2C=CC(Cl)=C(c3ccc(Oc4ccccc4)cc3)C2=N1`, the melting point is 283 to 284 °C.
Under `O=C(Nc1ccc(-n2nc(C(F)(F)F)cc2C(F)(F)F)cc1)C1CCCO1` (configuration not stated) stands 113 to 116 °C.
As for `Cc1c(C(=O)O)cnn1-c1nc(-c2ccc(Cl)c(Cl)c2)cs1`, the figure is 278 to 279 °C; as for `Cc1cc(OCc2coc(C=Cc3ccc(OC(F)(F)F)cc3)n2)ccc1COCCn1ccnn1`, 84 to 85 °C; as for `Cc1ccc(-c2nc3cccnc3n2CC(N)=O)s1`, more than 250 °C.
Under `CC1(OC(=O)c2ccccc2)C(OC(=O)c2ccccc2)OC(COC(=O)c2ccccc2)C1OC(=O)c1ccccc1` (configuration not stated) stands 201 to 209 °C; under `O=C1NCCC[C@@H]1NS(=O)(=O)c1ccc(F)cc1F`, 162 to 163 °C.
The compound `CCOC(=O)c1ncc2[nH]c3ccc(Oc4ccc(OC)cc4)cc3c2c1COC` yielded a melting point of 154 °C.
Under `CC(O)C(Oc1ccc(NC(=O)NC(=O)c2ccccc2Cl)cc1)c1ccccc1` (configuration not stated) stands 142 to 144 °C; under `O=C1c2ccccc2C(O)N1CCBr` (racemic), 123 to 124 °C; under `NS(=O)(=O)c1cc2[nH]ccc2cc1F`, 181 to 182 °C.
As for `COC(=O)C(C(=O)OC)C(Cc1c([N+](=O)[O-])cccc1C(F)(F)F)c1ccc(OC)cc1` (configuration not stated), the melting point was in the range of 117 to 119 °C.
As for `Cc1ccc(Cl)c(N2C(=O)C(=O)c3ccccc32)c1Cl`, the figure is 164 to 166 °C.
As for `CC(C)(C)OC(=O)NCC(=O)N1CCC[C@H]1C(=O)O`, the figure is 140 to 143 °C.
`O=c1[nH][nH]c2c1c(O)nc1cc(Cl)ccc12` yielded a melting point of more than 350 °C.
In turn, `COCO[C@@H]1[C@H]2OC(C)(C)O[C@H]2[C@H](O[C@H]2C[C@H]3OC(C)(C)OC[C@]34C3C(CC[C@]4(O)C2)[C@@]2(O)CC[C@H](CO)[C@@]2(C)C[C@H]3OCOC)O[C@H]1C` (some centres not stated) had a melting point of 126 to 129 °C.
As for `Oc1cc2onc(C3CCCCC3)c2cc1O`, the figure is 177 °C; as for `N#Cc1[nH]c(Br)c(Br)c1-c1ccc(Cl)cc1`, more than 250 °C.
Under `CCOC(=O)C1=C(COCC#CC(N)=O)NC(C)=C(C(=O)OC)C1c1cccc(Cl)c1Cl` (configuration not stated) stands 147 to 148 °C.
In turn, `O=C(NCCCN1CCN(c2ccc(F)cc2OCC(F)(F)F)CC1)c1conc1-c1ccc(F)cc1` registered a melting point of 122 to 123 °C.
As for `COc1ccc(C(=NOCc2ccccc2)c2cccc([N+](=O)[O-])c2)cc1`, the figure is 100 to 101 °C.
As for `O=C(CCC1CCNCC1)c1ccc2[nH]c3ccccc3c2c1`, the figure is 206 to 209 °C; as for `C/C(=C\c1ccc(C(=O)O)cc1)c1ccc2c(c1)C(C)(C)CC(=O)C2(C)C`, 249 to 250 °C; as for `CCOC(=O)c1ccc(Sc2cc3c(cc2C(C)C)C(C)(C)CCC3(C)C)cc1`, 99 to 100 °C.
Under `Cc1nc[nH]c1CSCCNC(=N)NCCSCc1nccs1` stands 149 to 151 °C; under `CSc1cc(C)nc(SC)c1NC(=O)CCCCCCCSc1nc2cccc(C(F)(F)F)c2o1`, 115 to 116 °C; under `Cn1c(=O)ccc2cnc(S(C)(=O)=O)nc21`, 194 to 196 °C.
Regarding `CN(CCc1ccccc1)C1CCN(C(=O)Nc2ccccc2)CC1`, the melting point is 105 to 107 °C.
Under `CN(C1CN(C(=O)Nc2ccc(C(F)(F)F)cc2)N=C1c1ccc(Cl)cc1)S(C)(=O)=O` (configuration not stated) stands 105 to 112 °C.
Under `CC(C)C[C@H](OC(=O)N1CCCCCC1)C(=O)O` stands 86 to 88 °C; under `ClCCCCOc1ccc(Br)c(CCOCc2ccccc2)c1`, 65 to 66 °C.
Under `O=C(NO)c1ccc(CNC(=O)c2[nH]c(-c3cccs3)cc2-c2ccc(F)cc2)cn1` stands 189 to 191 °C; under `CNC(=O)C(O)C(Oc1ccccc1[N+](=O)[O-])c1ccccc1` (configuration not stated), 162 to 163 °C.
`COc1cccc(Nc2ccc(Nc3ncnc4cc(-c5ccccc5)sc34)cc2)c1` registered a melting point of 189 to 191 °C.
As to `Cc1ccc(NCc2ccc(C(=O)Nc3ccccc3N)cc2)cc1Nc1nccc(-c2cccnc2)n1`, the melting point lay in the range of 112 to 120 °C.
Under `O=C(O)c1cccc(-c2cccc(OCCc3ccc(Cl)cc3Cl)n2)c1` stands 199 to 200 °C.
In turn, `CN(C)C(=O)COc1ccc(-c2ccc(C3COC(c4c(F)cccc4F)=N3)cc2)cc1` (configuration not stated) registered a melting point of 78 to 80 °C.
As for `CCOC(=O)c1cn(CC)c2nc(N3CCN(C)CC3)ccc2c1=O`, the figure is 130 °C; as for `Cn1cc(-c2cc3cccnc3[nH]2)c2cc(C(=O)NCCO)ccc21`, 256 to 257 °C; as for `C=CC(O)c1ccccc1C#CC1C(O)C2CCN1CC2` (configuration not stated), 148 to 150 °C.
For the compound `CC(C)OC(=O)c1nc(-c2ccc(=O)[nH]c2)c(-c2ccccc2)nc1N`, the melting point is 250 to 256 °C.
Under `O=C(O)c1c(OCc2ccccc2)c2ccccc2n1-c1ccccc1` stands 140 to 142 °C; under `O=CN1CCN(c2nc3cccc4c3n2CCC4)CC1`, 138 to 139 °C; under `CC1(C)CC(=O)c2c(-c3ccccc3)sc(-c3nccs3)c2C1`, 141 to 143 °C.
On to `O=C(c1ccccc1)c1ccc(NC(=O)N2CCC3(CC2)OC(=O)c2ccccc23)cc1`, for which the melting point lay within 161 to 163 °C.
Under `NC(=NO)c1nn(-c2c(Cl)cc(C(F)(F)F)cc2Cl)c(N)c1S(=O)(=O)C(F)(F)F` stands 205 to 206 °C.
Under `CC(C)(C)c1cc(C2N(c3ccccc3)CCN2c2ccccc2)cc(C(C)(C)C)c1O` stands 144 °C; under `COc1cc(OC)c2c(=O)[nH]c(-c3cccc(N4CCN(C(C)CO)CC4)n3)nc2c1` (configuration not stated), 202 to 204 °C; under `C#CCOc1cccnc1Cl`, 78 to 79 °C.
As for `CC(C)(O)c1ccc(CNC(=O)c2cccnc2Oc2cc(F)cc(F)c2)cc1`, the figure is 68 to 70 °C; as for `CC(C)c1cc(C(C)C)n(-c2ccc(NC(=O)c3cccnc3)cc2)n1`, 190 to 192 °C.
`N=CN1C(C(=O)NN)C(Sc2ccccc2)=CC(=O)N1c1ccccc1` (configuration not stated): the melting point fell in the range of 236 to 238 °C.
`CCOCn1c(Oc2cc(C)cc(C)c2)c(CC)c(=O)[nH]c1=O` displayed a melting point of 139 to 140 °C.
As for `C#CCOC(=O)Oc1ccc(C(=O)c2ccc(OC(=O)OCC#C)cc2)cc1`, the figure is 104 to 106 °C; as for `Cc1ccc(S(=O)(=O)Nc2cc(C(C)C)c([N+](=O)[O-])cc2Br)cc1`, 132 °C.
As for `CCC1(C)SC(=NOC(=O)N(C)C(C)=O)N=C1C` (configuration not stated), the figure is 98 to 101 °C; as for `C[C@H]1CCCC(C)(C)[C@@H]1[C@H](O)c1ccc(C(F)(F)F)cc1`, 63 to 66 °C; as for `N#CC(N)=C(C#N)N=Cc1cnn(-c2c(F)cc(F)cc2F)n1`, 213 to 215 °C.
Under `CCSc1nnnn1-c1ccc(Cl)cc1F` stands 76 to 79 °C; under `Cc1nn(C)c(NCC(C)(C)C)c1N`, 65 to 69 °C.
The compound `COc1ccc([N+](=O)[O-])c2nccc(Cl)c12` came in with a melting point of 125 to 138 °C.
As for `Cc1ccc(-n2nc(C(C)(C)C)cc2NC(=O)Nc2ccc(-c3c(C(N)=O)[nH]c4ccccc34)cc2)cc1`, the figure is more than 260 °C; as for `CC(=O)OC1COc2ccc3ncccc3c2C1` (configuration not stated), 125 to 127 °C; as for `CC(C)(C)OC(=O)CN1CC(c2ccc(F)cc2)CCC(N=[N+]=[N-])C1=O` (configuration not stated), 136 to 137 °C.
Compound `Cc1cc2c(cc1OCCn1ccnc1)CC/C(=C\c1cccs1)C2=O` displayed a melting point of 150 to 151 °C.
Under `CCc1cc(C(F)(C(F)(F)F)C(F)(F)F)cc(C)c1NC(=O)c1cccc(N)c1` stands 143 to 145 °C.
As for `CN1CC(CCN2CCOCC2)Oc2ncccc2C1=S` (configuration not stated), the figure is 152 to 153 °C; as for `COc1ccc(C(=O)Nc2ccccc2)cc1N(S(=O)(=O)c1cc(Cl)cc(Cl)c1)S(=O)(=O)c1cc(Cl)cc(Cl)c1`, 228 to 231 °C.
As to `CCOCc1cc(CCCOc2c(C)cc(-c3noc(C(F)(F)F)n3)cc2C)on1`, the melting point was 24 to 25 °C.
Under `COc1ccc(OCc2ccccc2)cc1C=O` stands 99 to 100 °C.
Under `CC(C)(C)OC(=O)n1cnc2c(N)cccc21` stands 117 °C; under `O=[N+]([O-])c1ccc(OCC(F)(F)F)c(OCC(F)(F)F)c1`, 63 to 65 °C.
As for `CC(=O)c1ccc(-c2ccc(N(c3ccccc3)c3ccccc3)cc2)cc1`, the figure is 97 to 98 °C; as for `CN1CCN(c2ccccc2C(O)C2SCCNC2=O)CC1` (configuration not stated), 137 to 139 °C; as for `CC(C)[C@H]1COC(=O)N1C(=O)[C@@H](CC(=O)N(C)Cc1ccccc1)Cc1ccccc1`, 60 to 62 °C.
On to `COc1cc(C(=O)Cc2ccccc2)cc([N+](=O)[O-])c1O`, for which the melting point fell in the range of 129 to 130 °C.
